Reference: patent US20260242353A1, “HETEROARYL DERIVATIVES AS DDRs INHIBITORS” (CHIESI FARMACEUTICI S.P.A., priority 2022, published 2026)
Where two headings read alike, the source gives them in different places.

Key:
[1] = biological target: T1, DDR2 (Homo sapiens, UniProt Q16832); test: LanthaScreen Europium Kinase Binding assay, DDR2
T1 construct: purchased Life Technologies
T1 sequence (Q16832 22-855): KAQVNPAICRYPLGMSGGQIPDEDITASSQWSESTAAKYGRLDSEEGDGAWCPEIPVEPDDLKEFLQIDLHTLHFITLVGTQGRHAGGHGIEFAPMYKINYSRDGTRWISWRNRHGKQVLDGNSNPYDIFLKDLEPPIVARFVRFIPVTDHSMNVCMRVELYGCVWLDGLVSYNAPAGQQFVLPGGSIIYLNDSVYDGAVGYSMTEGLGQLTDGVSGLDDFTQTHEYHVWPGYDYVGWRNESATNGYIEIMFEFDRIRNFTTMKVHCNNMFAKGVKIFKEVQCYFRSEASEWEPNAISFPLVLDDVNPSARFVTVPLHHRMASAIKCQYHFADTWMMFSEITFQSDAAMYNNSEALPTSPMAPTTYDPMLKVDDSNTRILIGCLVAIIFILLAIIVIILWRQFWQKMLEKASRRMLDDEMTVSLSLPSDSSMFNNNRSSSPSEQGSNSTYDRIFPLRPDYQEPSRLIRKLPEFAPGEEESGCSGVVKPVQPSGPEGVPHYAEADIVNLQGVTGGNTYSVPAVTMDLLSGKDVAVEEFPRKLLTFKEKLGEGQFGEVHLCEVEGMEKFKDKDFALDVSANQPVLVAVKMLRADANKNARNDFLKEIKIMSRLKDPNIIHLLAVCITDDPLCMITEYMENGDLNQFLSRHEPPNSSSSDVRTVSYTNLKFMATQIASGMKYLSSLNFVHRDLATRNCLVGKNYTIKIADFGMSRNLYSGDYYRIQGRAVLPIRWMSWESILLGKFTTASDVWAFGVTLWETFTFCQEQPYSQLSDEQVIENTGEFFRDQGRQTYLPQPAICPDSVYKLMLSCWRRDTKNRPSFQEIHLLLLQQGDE
In short: (§1)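 Compounds were incubated 1 h at rt with 5 nM DDR1 plus 20 nM Kinase Tracer 178, or 5 nM DDR2 plus 10 nM tracer, and 2 nM Eu anti-GST antibody in HEPES pH 7.5 buffer. Read-out was the TR-FRET 665/615 nm ratio. IC50 came from a 4-parameter fit and was converted to Ki by Cheng-Prusoff.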

[2] = biological target: T2, DDR1 (Homo sapiens, UniProt Q08345); test: LanthaScreen Europium Kinase Binding assay, DDR1
T2 construct: purchased Carna Biosciences
T2 sequence (Q08345 19-913): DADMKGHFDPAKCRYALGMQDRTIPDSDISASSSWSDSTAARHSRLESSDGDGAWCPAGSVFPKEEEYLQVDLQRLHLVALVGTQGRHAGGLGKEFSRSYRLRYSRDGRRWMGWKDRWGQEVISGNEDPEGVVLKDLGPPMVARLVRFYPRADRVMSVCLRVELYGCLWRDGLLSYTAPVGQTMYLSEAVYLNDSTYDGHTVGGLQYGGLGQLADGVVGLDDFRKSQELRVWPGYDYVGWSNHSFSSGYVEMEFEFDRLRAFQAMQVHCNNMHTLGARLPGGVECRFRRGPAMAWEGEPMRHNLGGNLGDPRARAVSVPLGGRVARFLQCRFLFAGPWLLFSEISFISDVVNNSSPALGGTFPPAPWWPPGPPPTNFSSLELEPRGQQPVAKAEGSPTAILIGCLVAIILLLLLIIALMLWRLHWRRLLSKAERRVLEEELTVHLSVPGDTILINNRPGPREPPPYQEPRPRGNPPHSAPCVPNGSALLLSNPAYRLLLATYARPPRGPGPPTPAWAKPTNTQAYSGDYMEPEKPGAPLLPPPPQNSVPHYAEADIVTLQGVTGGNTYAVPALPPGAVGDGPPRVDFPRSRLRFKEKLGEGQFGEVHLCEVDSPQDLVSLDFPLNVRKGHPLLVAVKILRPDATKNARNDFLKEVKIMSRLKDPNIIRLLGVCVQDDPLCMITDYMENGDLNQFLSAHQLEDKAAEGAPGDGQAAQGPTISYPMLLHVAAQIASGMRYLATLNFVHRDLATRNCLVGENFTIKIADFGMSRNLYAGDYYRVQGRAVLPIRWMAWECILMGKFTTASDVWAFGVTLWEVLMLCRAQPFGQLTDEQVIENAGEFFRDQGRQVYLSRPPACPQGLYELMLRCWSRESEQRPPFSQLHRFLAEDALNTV
In short: as §1

[3] = 5 nM DDR2, 10 nM Kinase Tracer 178, 1 h at rt, Ki from IC50 by Cheng-Prusoff, read-out: Ki DDR2
[4] = 5 nM DDR1, 20 nM Kinase Tracer 178, 1 h at rt, Ki from IC50 by Cheng-Prusoff, read-out: Ki DDR1
[5] = same binding assay, 5 nM DDR2, 10 nM Kinase Tracer 178, read-out: DDR2 Ki
[6] = same binding assay, 5 nM DDR1, 20 nM Kinase Tracer 178, read-out: DDR1 Ki

Row | Ki [1, 3] [nM] | Ki [2, 4] [nM] | Ki [1, 5] [nM] | Ki [2, 6] [nM] | SMILES
1 | < 5 | < 5 | – | – | Cc1ccc(C(=O)Nc2cncc(C(F)(F)F)c2)cc1[C@@H]1CCN(c2ncnc3[nH]ncc23)C1 [Example 129, (S)-3-(1-(1H-pyrazolo[3,4-d]pyrimidin-4-yl)pyrrolidin-3-yl)-4-methyl-N-(5-(trifluoromethyl)pyridin-3-yl)benzamide]
2 | 5 to 25 | < 5 | – | – | CC(=O)Nc1ncc(N2CC[C@@H](c3cc(C(=O)Nc4cncc(C(F)(F)F)c4)ccc3C)C2)cn1 [Example 130, (S)-3-(1-(2-acetamidopyrimidin-5-yl)pyrrolidin-3-yl)-4-methyl-N-(5-(trifluoromethyl)pyridin-3-yl)benzamide]
3 | < 5 | < 5 | – | – | Cc1ccc(C(=O)Nc2cc(C(C)(C)C)n(C)n2)cc1[C@@H]1CCN(c2ncnc3ccsc23)C1 [Example 131, (S)-N-(5-(tert-butyl)-1-methyl-1H-pyrazol-3-yl)-4-methyl-3-(1-(thieno[3,2-d]pyrimidin-4-yl)pyrrolidin-3-yl)benzamide]
4 | 5 to 25 | < 5 | – | – | Cc1ccc(C(=O)Nc2cncc(C(F)(F)F)c2)cc1N1CC(Oc2cncc(C(N)=O)c2)C1 [Example 132, 5-((1-(2-methyl-5-((5-(trifluoromethyl)pyridin-3-yl)carbamoyl)phenyl)azetidin-3-yl)oxy)nicotinamide]
5 | < 5 | < 5 | – | – | CC(=O)Nc1cncc(OC2CN(c3cc(C(=O)Nc4cncc(C(F)(F)F)c4)ccc3C)C2)c1 [Example 133, 3-(3-((5-acetamidopyridin-3-yl)oxy)azetidin-1-yl)-4-methyl-N-(5-(trifluoromethyl)pyridin-3-yl)benzamide]
6 | – | – | 588 | 148 | Cc1ccc(C(=O)Nc2cncc(C(F)(F)F)c2)cc1[C@@H]1CCN(Cc2cnc3ccccn23)C1 [Example C1, (S)-3-(1-(imidazo[1,2-a]pyridin-3-ylmethyl)pyrrolidin-3-yl)-4-methyl-N-(5 (trifluoromethyl)pyridin-3-yl)benzamide]
7 | – | – | 588 | 487 | Cc1ccc(C(=O)Nc2cncc(C(F)(F)F)c2)cc1[C@@H]1CCN(CC(N)=O)C1 [Example C2, (S)-3-(1-(2-amino-2-oxoethyl)pyrrolidin-3-yl)-4-methyl-N-(5-(trifluoromethyl)pyridin-3-yl)benzamide]
